“And” between values parts separate entries of the source, which are not always exact repeats. Equal values may be shown once. The source made the active and inactive calls. The rule behind the calls is not given here.
Tested on: rodent lifetime carcinogenesis bioassay, tumor incidence TD50
Test: carcinogenic potency in animals, long-term in vivo studies, CPDB compilation (AID 1745844)

## Nc1nc(=S)c2ncn([C@H]3C[C@H](O)[C@@H](CO)O3)c2[nH]1
mouse, strain B6C3F1, females, i.p., site: any site (literature study), lesion: several types, types named in the paper, dosed 43 weeks, study length 77 weeks
  TD50: 4.48 mg/kg/day
mouse, strain B6C3F1, females, i.p., site: lung, lesion: alveolar/bronchiolar adenoma + alveolar/bronchiolar carcinoma, dosed 43 weeks, study length 77 weeks
  TD50: 6.87 mg/kg/day
rat, strain Sprague-Dawley, females, i.p., site: any site (literature study), lesion: several types, types named in the paper, dosed 52 weeks, study length 78 weeks
  TD50: 4.11 mg/kg/day
rat, strain Sprague-Dawley, females, i.p., site: ear canal, lesion: carcinoma, NOS + squamous-cell carcinoma, dosed 52 weeks, study length 78 weeks
  TD50: 2.1 mg/kg/day
rat, strain Sprague-Dawley, females, i.p., site: ear canal, lesion: squamous-cell carcinoma, dosed 52 weeks, study length 78 weeks
  TD50: 2.31 mg/kg/day
rat, strain Sprague-Dawley, males, i.p., site: all sites, lesion: lymphoma, dosed 52 weeks, study length 78 weeks
  TD50: 5.75 mg/kg/day
rat, strain Sprague-Dawley, males, i.p., site: ear canal, lesion: carcinoma, NOS + squamous-cell carcinoma, dosed 52 weeks, study length 78 weeks
  TD50: 4.38 mg/kg/day

## O=NN1CCCN(N=O)C1
rat, strain Sprague-Dawley, males, i.p., site: paranasal sinus, lesion: squamous-cell carcinoma, dosed 104 weeks, study length 104 weeks
  TD50: 0.166 mg/kg/day

## C=CCN(CCO)N=O
rat, strain Fischer 344, females, in drinking water, site: liver, lesion: hepatocellular carcinoma, dosed 50 weeks, study length 65 weeks
  TD50: 4.12 mg/kg/day
rat, strain Fischer 344, females, in drinking water, site: nasal cavity, lesion: several types, types named in the paper, dosed 50 weeks, study length 65 weeks
  TD50: 0.491 mg/kg/day

## ClC(Cl)(Cl)C(Cl)(Cl)Cl
mouse, strain B6C3F1, females, by gavage, site: any site (literature study), lesion: several types, types named in the paper, dosed 78 weeks, study length 90 weeks
  TD50: 1190 mg/kg/day
mouse, strain B6C3F1, females, by gavage, site: liver, lesion: hepatocellular adenoma + hepatocellular carcinoma + neoplastic nodule, dosed 78 weeks, study length 90 weeks
  TD50: 873 mg/kg/day
mouse, strain B6C3F1, females, by gavage, site: liver, lesion: hepatocellular carcinoma, dosed 78 weeks, study length 90 weeks
  TD50: 873 mg/kg/day and 319 mg/kg/day
mouse, strain B6C3F1, females, by gavage, site: lung, lesion: alveolar/bronchiolar adenoma + alveolar/bronchiolar carcinoma, dosed 78 weeks, study length 90 weeks
  TD50: 6950 mg/kg/day
mouse, strain B6C3F1, males, by gavage, site: any site (literature study), lesion: several types, types named in the paper, dosed 78 weeks, study length 90 weeks
  TD50: 675 mg/kg/day
mouse, strain B6C3F1, males, by gavage, site: liver, lesion: hepatocellular adenoma + hepatocellular carcinoma + neoplastic nodule, dosed 78 weeks, study length 90 weeks
  TD50: 585 mg/kg/day
mouse, strain B6C3F1, males, by gavage, site: liver, lesion: hepatocellular carcinoma, dosed 78 weeks, study length 90 weeks
  TD50: 585 mg/kg/day and 359 mg/kg/day
mouse, strain B6C3F1, males, by gavage, site: lung, lesion: alveolar/bronchiolar adenoma + alveolar/bronchiolar carcinoma, dosed 78 weeks, study length 90 weeks
  TD50: 23600 mg/kg/day
rat, strain Fischer 344, females, by gavage, site: any site (literature study), lesion: several types, types named in the paper, dosed 103 weeks, study length 105 weeks
  carcinogen call: negative (inactive)
rat, strain Fischer 344, females, by gavage, site: liver, lesion: hepatocellular adenoma + hepatocellular carcinoma + neoplastic nodule, dosed 103 weeks, study length 105 weeks
  TD50: 276000 mg/kg/day
rat, strain Fischer 344, males, by gavage, site: adrenal gland + adrenal medulla, lesion: pheochromocytoma, benign + pheochromocytoma benign, bilateral + pheochromocytoma, complex + pheochromocytoma, malignant, dosed 103 weeks, study length 105 weeks
  TD50: 8.02 mg/kg/day
rat, strain Fischer 344, males, by gavage, site: adrenal gland + adrenal medulla, lesion: pheochromocytoma, benign + pheochromocytoma benign, bilateral, dosed 103 weeks, study length 105 weeks
  TD50: 9.05 mg/kg/day
rat, strain Fischer 344, males, by gavage, site: any site (literature study), lesion: several types, types named in the paper, dosed 103 weeks, study length 105 weeks
  TD50: 28 mg/kg/day
rat, strain Fischer 344, males, by gavage, site: kidney, lesion: adenoma + tubule adenoma + tubule carcinoma, dosed 103 weeks, study length 105 weeks
  TD50: 55.4 mg/kg/day
rat, strain Fischer 344, males, by gavage, site: kidney, lesion: tubule carcinoma, dosed 103 weeks, study length 105 weeks
  TD50: 159 mg/kg/day
rat, strain Fischer 344, males, by gavage, site: liver, lesion: hepatocellular adenoma + hepatocellular carcinoma + neoplastic nodule, dosed 103 weeks, study length 105 weeks
  TD50: 1340 mg/kg/day
rat, strain Osborne-Mendel, females, by gavage, site: any site (literature study), lesion: several types, types named in the paper, dosed 78 weeks, study length 111 weeks
  carcinogen call: negative (inactive)
rat, strain Osborne-Mendel, males, by gavage, site: any site (literature study), lesion: several types, types named in the paper, dosed 78 weeks, study length 111 weeks
  carcinogen call: negative (inactive)

## [O]=[Cr](=[O])([OH])[O][Cr](=[O])(=[O])[OH]
rat, strain Wistar, males, inhaled, site: any site (literature study), lesion: several types, types named in the paper, dosed 78 weeks, study length 130 weeks
  TD50: 0.875 mg/kg/day
rat, strain Wistar, males, inhaled, site: liver, lesion: malignant tumor, dosed 78 weeks, study length 130 weeks
  TD50: 14.4 mg/kg/day
rat, strain Wistar, males, inhaled, site: lung, lesion: adenocarcinoma, dosed 78 weeks, study length 130 weeks
  TD50: 7.07 mg/kg/day
rat, strain Wistar, males, inhaled, site: lung, lesion: adenoma, dosed 78 weeks, study length 130 weeks
  TD50: 14.4 mg/kg/day
rat, strain Wistar, males, inhaled, site: lung, lesion: several types, types named in the paper, dosed 78 weeks, study length 130 weeks
  TD50: 4.64 mg/kg/day
rat, strain Wistar, males, inhaled, site: pharynx, lesion: squamous-cell carcinoma, dosed 78 weeks, study length 130 weeks
  TD50: 14.4 mg/kg/day
